Consider three molecules from patent publication US12013389B2, “Method of evaluating pathological conditions of heart failure” (NATIONAL UNIVERSITY CORPORATION HOKKAIDO UNIVERSITY, priority 2018, dated 2024).

For one assay, the system named is mitochondrial complex IV. Kind of assay: Respiratory capacity related to complex IV in myocardial mitochondria of HF model mice given ALA. Type of assay: in vivo. Conditions: ALA 50 mg/L in drinking water (6 to 8 mg/kg/day), day 28 after operation. As for the experimental part: (§1) A mitochondrial respiratory capacity (oxidative phosphorylation: OXPHOS) was measured by a high-resolution respiration measurement method. Specifically, isolated mitochondria (50 to 100 μg) or myocardial fibrous tissues (0.5 to 3 mg) after the cell membrane permeation treatment were used as a test sample, and measurement was performed using a mitochondrial oxygen activity/cell metabolic energy analyzing device (product name: “OROBOROS Oxygraph-2 k,” commercially available from Innsbruck) (hereinafter referred to as a “mitochondrial respiratory capacity measurement device” in some cases) under an environment at 37° C. according to the following protocol. An oxygen consumption amount was calculated using Datlab software, and in this case, correction was performed per tissue weight or per mitochondrion.
(8) The respiratory capacity when 2 mmol/L of ascorbic acid and 0.5 mmol/L of TMPD (N,N,N′,N′-tetramethyl-p-phenylenediamine), which are substrates of mitochondrial complex IV, were added was measured. Next, the respiratory capacity when 100 mmol/L of sodium azide as an inhibitor was added was measured, and a difference therebetween was calculated (CIV_OXPHOS).
(§2) The left anterior descending coronary artery of the heart of 10- to 12-week old male C57BL/6J mice (body weight of 23 to 26 g) was ligated to cause myocardial infarction (MI). […]

Assay [1] deals with HF model mice. Kind of assay: Echocardiography of HF model mice given ALA. As to conditions: HF model mice with ALA vs without ALA; 6 to 8 mg/kg/day; day 28 after operation. Type of assay: in vivo. The procedure:
Echocardiography was performed under anesthesia ([…] 8 μL/gBW, intraperitoneal administration) with a short duration of action and least impact on the cardiovascular system. The limbs and tail were fixed in a lying position to an examination table with a tape and the anterior chest wall of the mice was depilated with a depilatory cream. Using an ultrasonic diagnostic device and a 12 MHz linear probe, optimal 2D parasternal short-axis images were visualized at the papillary muscle level. Switching to an M mode method was performed, recording was performed at a recording paper speed of 40 mm/s, and a heart rate, a left ventricular end-diastolic dimension, a left ventricular end-systolic dimension, a left ventricular anterior wall thickness, a left ventricular posterior wall thickness, and a left ventricular fractional shortening were measured.
(§3) The left anterior descending coronary artery of the heart of 10- to 12-week old male C57BL/6J mice (body weight of 23 to 26 g) was ligated to cause myocardial infarction (MI). The body weight of the mice was measured before the operation, a mixed anesthetic containing 3 types including 0.3 mg/kg BW of medetomedine hydrochloride, 4.0 mg/kg BW of midazolam, and 5.0 mg/kg BW of butorphanol tartrate was intraperitoneally administered, and it was confirmed that the depth of anesthesia was sufficient. […]

For assay [2], the system named is mitochondrial complex I and mitochondrial complex II. Kind of assay: Respiratory capacity related to complex I and complex II in myocardial mitochondria of HF model mice given ALA. Conditions: ALA 50 mg/L in drinking water (6 to 8 mg/kg/day), day 28 after operation. Type of assay: in vivo. The procedure: as §1
(§4) (3) 10 mmol/L of succinic acid, which is a substrate related to mitochondrial complex II, was added, and the oxygen consumption amount was measured (CI+II_OXPHOS). […]
(§5) Specifically, after the HF model mice were underwent a left coronary artery ligation operation, an aqueous solution (50 mg/L) containing ALA (≥98%, commercially available from Sigma Aldrich) was administered by forced drinking (6 to 8 mg/kg/day), and on the 28th day after the operation, the mitochondrial functions were measured using echocardiography and a mitochondrial respiratory capacity measurement device. […]

Assay [3] has as its system HF model mice. Put plainly: Exercise capacity (treadmill) of HF model mice given ALA. Type of assay: in vivo. Conditions: HF model mice with ALA vs without ALA; treadmill run until exhaustion. The procedure: as §3, §5
In addition, the exercise capacities of the HF model mice without administration of ALA and the HF model mice to which ALA was administered were examined. The exercise capacity was expressed as a product of an exercise time and a body weight. The exercise time was measured using a small animal treadmill, and mice were at rest for 10 minutes, and w-up for 10 minutes (6 m/min, inclination of 10 degrees), and then forced to run until exhaustion by increasing a load (2 m/2 min). […]

For assay [4], the system named is mitochondrial complex II. Put plainly: Respiratory capacity related to complex II in myocardial mitochondria of HF model mice given ALA. Conditions: ALA 50 mg/L in drinking water (6 to 8 mg/kg/day), day 28 after operation. Type of assay: in vivo. As for the experimental part: as §1
(4) In order to observe the respiration of OXPHOS of mitochondrial complex II alone, 0.5 μmol/L of rotenone, which is an inhibitor of mitochondrial complex I, was added and the oxygen consumption amount was measured (CII_OXPHOS).
as §2

Assay [5] concerns H9c2 cells. Kind of assay: Succinylation level of mitochondrial proteins of glycine-treated H9c2 cells. In kind it is cell-based. As for the experimental part:
(§6) When glycine was used, glycine was added to the culture medium for cultured H9c2 cells so that the concentration was 100 mM, and the cells were cultured for 6 hours. After culturing, the cells were collected and mitochondria were isolated. Then, the succinylation level of the mitochondrial proteins was measured by WB.
(§7) In addition, in the heme synthesis process, glycine and succinyl-CoA reacted to synthesize ALA. […] The succinylation level and the respiratory capacity related to mitochondrial complex II were examined.

Assay [6] deals with H9c2 cells. Put plainly: Respiratory capacity related to mitochondrial complex II in glycine-treated H9c2 cells. Type of assay: cell-based. As for the experimental part: as §6, §7
Assay [7] concerns mitochondrial complex II. Kind of assay: Expression level of mitochondrial complex II per mitochondrion (blue native method, anti-SDHA). In kind it is biochemical. As to conditions: mitochondria isolated from HF model mice treated with 1 mM succinyl-CoA. The procedure: Based on the results so far, it was clearly understood that the respiratory capacity related to mitochondrial complex II could be controlled by the expression level of mitochondrial complex II per mitochondrion. Therefore, for the mitochondria isolated from the control mice and the HF model mice and the mitochondria isolated from the HF model mice and then treated with 1 mM succinyl-CoA, the expression level of mitochondrial complex II per mitochondrion was evaluated using anti-SDHA mouse monoclonal antibodies (1:1,000, ab14715, commercially available from Abeam) by a blue native method.

Assay [8] concerns the target T1, mitochondrial complex II (Mus musculus, UniProt Q8K2B3+Q9CQA3+Q9CXV1+Q9CZB0).
T1 construct: from tissue; host or cells: mitochondria isolated from the left ventricle (myocardium) of C57BL/6J mice (wild type, sham control or HF model)
Put plainly: Mitochondrial respiratory capacity related to complex II after adding succinyl-CoA to isolated mitochondria (high-resolution respiration measurement). As to conditions: mitochondria isolated from wild type mice. Type of assay: biochemical. As for the experimental part:
First, the heart (left ventricle) extracted from euthanized mice under anesthesia was immersed in a tissue preservation solution BIOPS (2.77 mM CaK2EGTA, 7.23 mM K2EGTA, 5.77 mM Na2ATP, 6.56 mM MgCl2/6H2O, 20 mM taurine, 15 mM Na2 phosphocreatine, 20 mM imidazole, 0.5 mM dithiothreitol, 50 mM MES hydrate, pH 7.1), and then shredded in a tissue isolation buffer (100 mM sucrose, 100 mM KCl, 50 mM tris-HCl, 1 mM KH2PO4, 0.1 mM EGTA, 0.2% bovine serum albumin, pH 7.4). Protease was added to this shredded product to cause an enzyme reaction and homogenization was then performed. The obtained homogenized solution was centrifuged to remove the supernatant, and the precipitate was washed with a tissue isolation buffer twice. […]
A mitochondrial respiratory capacity (oxidative phosphorylation: OXPHOS) was measured by a high-resolution respiration measurement method. […] An oxygen consumption amount was calculated using Datlab software, and in this case, correction was performed per tissue weight or per mitochondrion. […]
(2) 10 mmol/L of glutamic acid, 2 mmol/L of malic acid, and 5 mmol/L of pyruvic acid, which are substrates related to mitochondrial complex I, were added, and the oxygen consumption amount was measured (CI_OXPHOS).
as §4

The subject of a further assay is mitochondrial proteins. Kind of assay: Succinylation assay of mitochondrial proteins (isolated mouse heart mitochondria, western blotting). Type of assay: biochemical, mice. The procedure:
First, the heart (left ventricle) extracted from euthanized mice under anesthesia was immersed in a tissue preservation solution BIOPS (2.77 mM CaK2EGTA, 7.23 mM K2EGTA, 5.77 mM Na2ATP, 6.56 mM MgCl2/6H2O, 20 mM taurine, 15 mM Na2 phosphocreatine, 20 mM imidazole, 0.5 mM dithiothreitol, 50 mM MES hydrate, pH 7.1), and then shredded in a tissue isolation buffer (100 mM sucrose, 100 mM KCl, 50 mM tris-HCl, 1 mM KH2PO4, 0.1 mM EGTA, 0.2% bovine serum albumin, pH 7.4). Protease was added to this shredded product to cause an enzyme reaction and homogenization was then performed. The obtained homogenized solution was centrifuged to remove the supernatant, and the precipitate was washed with a tissue isolation buffer twice. A suspension buffer (225 mM mannitol, 75 mM sucrose, 10 mM tris-HCl, 0.1 mM EDTA, pH 7.4) was added to the washed precipitate and the precipitate was dissolved.
[…] Then, the succinylation level of the mitochondrial proteins was measured by western blotting (WB).
Specifically, first, succinyl-CoA (0, 1, 3, or 10 mM) was added to the mitochondria collected from the left ventricle of wild type mice (C57BL/6J), succinylation assay was performed, and the succinylation level of the mitochondrial proteins (the relative amount when the amount of succinylation proteins without addition of succinyl-CoA (0 mM) was set as 1) was examined. […]

[9] abbreviates: H9c2 cells treated with glycine, succinyl-CoA added.

T1 sequence (Q8K2B3 43-664): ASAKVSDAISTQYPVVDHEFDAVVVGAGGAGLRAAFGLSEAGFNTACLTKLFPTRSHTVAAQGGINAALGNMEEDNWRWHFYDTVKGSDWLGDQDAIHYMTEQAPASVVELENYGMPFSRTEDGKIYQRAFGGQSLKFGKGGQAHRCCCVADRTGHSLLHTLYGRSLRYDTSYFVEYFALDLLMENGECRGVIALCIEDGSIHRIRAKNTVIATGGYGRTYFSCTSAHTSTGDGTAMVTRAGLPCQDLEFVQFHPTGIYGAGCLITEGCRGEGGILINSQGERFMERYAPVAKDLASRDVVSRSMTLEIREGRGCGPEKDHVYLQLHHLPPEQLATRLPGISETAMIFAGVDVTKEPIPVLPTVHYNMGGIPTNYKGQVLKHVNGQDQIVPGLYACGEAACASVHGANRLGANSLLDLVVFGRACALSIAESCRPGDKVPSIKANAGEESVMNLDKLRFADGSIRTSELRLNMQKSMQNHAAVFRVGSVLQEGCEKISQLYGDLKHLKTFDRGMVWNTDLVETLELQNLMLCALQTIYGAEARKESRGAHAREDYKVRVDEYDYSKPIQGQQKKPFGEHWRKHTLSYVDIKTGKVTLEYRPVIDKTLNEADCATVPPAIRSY
T1 sequence (Q9CQA3 29-282 limits assumed): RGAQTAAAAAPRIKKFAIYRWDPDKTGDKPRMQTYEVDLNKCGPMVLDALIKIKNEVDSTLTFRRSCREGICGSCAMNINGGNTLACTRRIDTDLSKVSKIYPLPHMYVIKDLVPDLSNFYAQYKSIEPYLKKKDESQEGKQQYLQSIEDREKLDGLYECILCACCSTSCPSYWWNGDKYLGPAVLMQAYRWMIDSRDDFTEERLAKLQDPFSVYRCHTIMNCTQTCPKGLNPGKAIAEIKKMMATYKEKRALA
T1 sequence (Q9CZB0 30-169): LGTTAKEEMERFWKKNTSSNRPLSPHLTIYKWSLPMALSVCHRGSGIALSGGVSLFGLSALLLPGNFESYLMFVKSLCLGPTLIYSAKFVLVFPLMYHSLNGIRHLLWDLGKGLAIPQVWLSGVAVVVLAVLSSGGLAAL
T1 sequence (Q9CXV1 57-159): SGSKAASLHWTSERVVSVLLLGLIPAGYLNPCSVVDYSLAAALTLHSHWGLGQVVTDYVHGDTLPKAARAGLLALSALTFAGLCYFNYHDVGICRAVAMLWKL

In the case of `NCC(=O)CCC(=O)O` [ALA, 5-aminolevulinic acid], in the assay with mitochondrial complex IV, the “respiratory capacity related to mitochondrial complex IV” value is recorded as “improved”. For the same molecule, in the assay on HF model mice [1], the “left ventricular fractional shortening (% FS)” value was “significantly improved”. In [2], the “respiratory capacity related to mitochondrial complex I and mitochondrial complex II” value was “improved”. Further, the “exercise capacity (exercise time x body weight)” value in the assay with HF model mice [3] is reported as “significantly improved”. Besides, the “respiratory capacity related to mitochondrial complex II” value with mitochondrial complex II [4] is on record as “improved”.

As for `NCC(=O)O` [glycine, reference compound], the “succinylation level of mitochondrial proteins” value in the assay on H9c2 cells [5] (H9c2 cells treated with glycine (100 mM, 6 hours)) is “decreased”. Moreover, the “respiratory capacity related to mitochondrial complex II” value with H9c2 cells [6] (cells treated with glycine) was “decreases”.

As for `CC(C)(COP(=O)(O)OP(=O)(O)OC[C@H]1O[C@@H](n2cnc3c(N)ncnc32)[C@H](O)[C@@H]1OP(=O)(O)O)[C@@H](O)C(=O)NCCC(=O)NCCSC(=O)CCC(=O)O` [succinyl-CoA], the “amount of mitochondrial complex II (expression level per mitochondrion)” value in the assay with mitochondrial complex II [7] is on record as “remained reduced”. The “respiratory capacity related to mitochondrial complex II” value was “increased” on mitochondrial complex II [8] (1 mM succinyl-CoA), “significantly decreased” on mitochondrial complex II [8] (10 mM succinyl-CoA) and “improved” with H9c2 cells [6] (setting [9]). Besides, the “succinylation in the mitochondrial protein” value with mitochondrial proteins (mitochondria from left ventricle of wild type mice (C57BL/6J), succinyl-CoA 1, 3 or 10 mM, relative to 0 mM) is on record as “increased”. Moreover, the “succinylation level of mitochondrial proteins” value with mitochondrial proteins (mitochondria isolated from HF model mice, 0.1 mM succinyl-CoA) is given as “improved”; with H9c2 cells [5] (setting [9]), “improved”.
